This experiment has as its target T1, SCD (rat liver microsome) (Rattus norvegicus, UniProt P07308).
T1 construct: an enzyme reaction using rat liver microsome (20 μg) was performed for 15 min; from tissue; host or cells: rat liver microsome fraction
T1 sequence (P07308 1-358): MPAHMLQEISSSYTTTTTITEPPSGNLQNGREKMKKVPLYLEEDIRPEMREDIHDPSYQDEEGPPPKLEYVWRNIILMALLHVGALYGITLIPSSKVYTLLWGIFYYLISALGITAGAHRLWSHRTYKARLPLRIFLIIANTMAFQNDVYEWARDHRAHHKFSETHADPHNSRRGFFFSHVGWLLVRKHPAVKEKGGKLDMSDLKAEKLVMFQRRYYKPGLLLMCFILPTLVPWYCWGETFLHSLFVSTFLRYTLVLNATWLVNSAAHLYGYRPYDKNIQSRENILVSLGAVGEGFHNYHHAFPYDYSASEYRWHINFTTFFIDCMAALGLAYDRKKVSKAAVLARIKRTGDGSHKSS
Kind of experiment: Measurement of SCD inhibitory activity using microsome (TLC detection system). The following applies: test compound 10 μM, rat liver microsome (20 μg), [14C] stearoyl-CoA, 15 min; for inhibition at 10 µM: read-out: SCD activity inhibitory rate (%). In kind it is biochemical. As for the experimental part: “Test Method” Measurement of SCD Inhibitory Activity Using Microsome (TLC Detection System)
A test compound (10 mM) diluted with DMSO in advance was secondarily diluted to 3/1000 with 3× buffer (300 mmol/L NaH2PO4 [pH 7.4], 450 mM KCl, 30 mM NaF, 9 mM MgCl2, 4.5 mM glutathione [reduced form], 0.3% BSA [fatty acid free, SIGMA]). The test compound (10 μL) diluted with the assay buffer was dispensed to a PP 96-deep well block, and a microsome fraction (10 μL) diluted with a microsome buffer was added thereto. The enzyme reaction was started by the addition of 10 μL of [^14C] stearoyl-CoA (American Radiolabeled Chemicals [ARC], Inc.) diluted to 10 μCi/mL with 9 mmol/L NADH. For evaluation of the compound, an enzyme reaction using rat liver microsome (20 μg) was performed for 15 min. The reaction was quenched by the addition of 10 μL of 2.5N NaOH, a plate seal was applied, and the reaction mixture was incubated overnight in a dry heater set to 65° C. to allow saponification. Solvent extraction of fatty acid was based on the Bligh&Dyer method (1). Formic acid:methanol:chloroform (1:6:3) (200 μL) was added, the state of single layer was maintained, the mixture was sufficiently stirred, and pure water (120 μL) was added to allow separation into two layers. The lower chloroform layer (10 μL) was spotted on reversed-phase TLC plate (RP-18, 1154230001, Merck Japan, Ltd.) and developed with acetonitrile:pure water:acetic acid (95:4.5:0.5). The TLC plate was dried and transferred onto an Imaging Plate (Fuji Photo Film Co., Ltd.) for not less than 5 hr. For detection, BAS-5000 (Fuji Photo Film Co., Ltd) was used and the obtained spot images were converted to numerical values using Multi Gauge Ver2.3 (Fuji Photo Film Co., Ltd), based on which the SCD activity inhibitory rate (%) was determined.
Background: Microsomes from liver hold many membrane-bound enzymes, among them those of drug oxidation.

Structures can show the parent of a compound that is named as a salt.

In the case of `Cc1cc(C)nc(NC(=O)N2CCOC(COc3ccccc3F)C2)c1` (centres unmarked) [Example 59, N-(4,6-dimethylpyridin-2-yl)-2-[(2-fluorophenoxy)methyl]morpholine-4-carboxamide trifluoroacetate], the inhibition at 10 µM worked out at 88%.

For `NC(=O)c1ccsc1NC(=O)c1cccc(COc2cc(Cl)ccc2Cl)c1` [Example 93, 2-({3-[(2,5-dichlorophenoxy)methyl]benzoyl}amino)thiophene-3-carboxamide], the inhibition at 10 µM is 83%. `O=C(Nc1cnn(Cc2ccc(F)cc2)c1)c1ccc(Cn2cnc3ccccc32)cc1` [Example 99, 4-(1H-benzimidazol-1-ylmethyl)-N-[1-(4-fluorobenzyl)-1H-pyrazol-4-yl]benzamide]: the inhibition at 10 µM came out at 93%. The same measure, in the same setting: in the case of `Cc1cc(C)nc(NC(=O)c2ccc(Cn3cnc4ccccc43)cc2)c1` [Example 108, 4-(1H-benzimidazol-1-ylmethyl)-N-(4,6-dimethylpyridin-2-yl)benzamide] it was 97%; in that of `Cc1cc(C)nc(NC(=O)c2cc(COc3cc(Cl)ccc3Cl)ccn2)c1` [Example 113, 4-[(2,5-dichlorophenoxy)methyl]-N-(4,6-dimethylpyridin-2-yl)pyridine-2-carboxamide], 86%; in that of `O=C(Nc1ccc(Cn2cccn2)cc1)c1ccnc(COc2cc(Cl)ccc2Cl)c1` [Example 116, 2-[(2,5-dichlorophenoxy)methyl]-N-[4-(1H-pyrazol-1-ylmethyl)phenyl]isonicotinamide], 100%.

Regarding `Cc1nn(Cc2ccccc2)c2sc(C(=O)Nc3ccc(Cn4cccn4)cc3)cc12` [Example 118, 1-benzyl-3-methyl-N-[4-(1H-pyrazol-1-ylmethyl)phenyl]-1H-thieno[2,3-c]pyrazole-5-carboxamide], the inhibition at 10 µM came to 86%. On the same count and under the same terms, in the case of `O=C(Nc1cnn(Cc2ccc(F)cc2)c1)c1cccc(COc2ccccc2)c1` [Example 149, N-[1-(4-fluorobenzyl)-1H-pyrazol-4-yl]-3-(phenoxymethyl)benzamide] it was 97%. The same measure, in the same setting: in the case of `O=C(Nc1ccc(Cn2cccn2)cc1)N1CCCC(COc2cc(Cl)ccc2Cl)C1` (centres unmarked) [Example 167, 3-[(2,5-dichlorophenoxy)methyl]-N-[4-(1H-pyrazol-1-ylmethyl)phenyl]piperidine-1-carboxamide] it was 85%. `O=C(Nc1cnn(CCO)c1)c1cc(COc2ccccc2Cl)ccn1` [Example 169, 4-[(2-chlorophenoxy)methyl]-N-[1-(2-hydroxyethyl)-1H-pyrazol-4-yl]pyridine-2-carboxamide]: the inhibition at 10 µM was determined as 88%. On the same count and under the same terms, in the case of `O=C(Nc1cnn(Cc2ccc(F)cc2)c1)c1cccc(CNc2ccccc2Cl)c1` [Example 201, 3-{[(2-chlorophenyl)amino]methyl}-N-[1-(4-fluorobenzyl)-1H-pyrazol-4-yl]benzamide] it was 99%.

For the compound `CCc1cccc(NC(=O)N2CCOC(COc3cc(F)ccc3Cl)C2)n1` (centres unmarked) [Example 202, 2-[(2-chloro-5-fluorophenoxy)methyl]-N-(6-ethylpyridin-2-yl) morpholine-4-carboxamide], the “SCD activity inhibitory rate (%)” value is listed as 92%. Take `O=C(Nc1ccc(CO)cn1)N1CCOC(COc2cc(F)ccc2Cl)C1` (centres unmarked) [Example 212, 2-[(2-chloro-5-fluorophenoxy)methyl]-N-[5-(hydroxymethyl)pyridin-2-yl]morpholine-4-carboxamide]: the inhibition at 10 µM is 97%.

Consider `CN(Cc1cccc(C(=O)Nc2cnn(Cc3ccc(F)cc3)c2)c1)c1ccccc1Cl` [Example 225, 3-{[(2-chlorophenyl)(methyl)amino]methyl}-N-[1-(4-fluorobenzyl)-1H-pyrazol-4-yl]benzamide], for which the inhibition at 10 µM was 93%.

For the origin of these results see US20090325956A1, “Aromatic amine derivative and use thereof” (priority 2006, published 2009).
